Results taken from patent US12285459B2, “Saposin-A derived peptides and uses thereof” (CHILDREN'S MEDICAL CENTER CORPORATION, priority 2011, dated 2025).

Key:
[1] = system: Lewis Lung Carcinoma cells; assay: Lewis Lung Carcinoma tail vein lung metastasis model, bioluminescence; assay type: in vivo, C57Bl6 mice
Experimental: C57Bl6 mice were injected with 1×10^6 Lewis Lung Carcinoma cells via tail vein. After 10 days the animals were treated with either PBS or a peptide corresponding to residues 36-40 of saposin A at a dose of 30 mg/kg/day via i.p. injection. After 16 days of treatment all animals were sacrificed, lungs were weighed and harvested. Tissues were either fixed in NBF, or lysed and analyzed for Tsp-1 and p53 expression by western blot analysis.
1×10^6 luciferase-expressing LLC cells were then injected via tail vein into C57Bl6 mice. After 5 days the mice were treated with the 5-amino acid peptide at a dose of 30 mg/kg/day via i.p. injection. After 29 days the animals were sacrificed, at which point the average luciferase activity in the peptide treated mice, as measured by a Xeongoen IVIS system, was 2% that of the luciferase activity in mice treated with a scrambled peptide (FIG. 8).
For experimental metastasis, 7-week old C57BL/6 mice were injected via tail vein with 1×10^5 luciferase-labeled LLC cells. Metastatic growth was monitored over time using bioluminescence imaging performed with mice in a supine position 5 min after D-luciferin injection with a Xenogen IVIS system coupled to Living Image acquisition and analysis software (Xenogen). For BLI plots, photon flux was calculated for each mouse by using the same circular region of interest encompassing the thorax of the mouse.

[2] = system: Tsp-1 expression in Gr1+ cells; assay: Tsp-1 in Gr1+ cells in lungs of mice given PC3M-LN4 CM plus peptide; assay type: in vivo, C57BL/6J mice
Experimental: CM from PC3M-LN4 cells cultured in serum-free medium for 24 hours was harvested, centrifuged and filtered through […] pore-size filters to remove any cells or cell debris. Wild-type C57BL/6J mice were treated with 200 μL serum-free conditioned media from PC3M-LN4 cells daily for 6 days via intraperitoneal (i.p.) injection in combination with DWLPK (SEQ ID NO: 4) peptide or scrambled peptide.
Animals were euthanized at the end of experiments and lungs were quickly perfused by injecting 5 ml of cold PBS through the right ventricle of the heart. One part of the lung from each animal was fixed in 3.7% formalin and the other part was sorted by flow cytometry for either protein or RNA extraction.
For microscopy, following formalin fixation, tissues were cryoembedded in Tissue-Tek O.C.T. embedding compound (Electron Microscopy Sciences). Sections (30 μm) were washed 3 times in PBS and incubated in blocking/permeabilization buffer (PBS+2 mM EDTA, 1% BSA, 1% Goat Serum, 0.05% Triton X-100). […]
Total RNA from flow cytometry sorted cells was extracted using the PicoPure RNA extraction kit (Arcturus) following the manufacturer's protocol. […] The relative abundance of each transcript compared with the control was calculated utilizing the delta-Ct method.

[3] = system: primary ovarian cancer cells; assay: Intraperitoneal metastatic ovarian cancer model, bioluminescence; assay type: in vivo, CB-17 SCID mice; details: 40 mg/kg QD from day 17; after 30 days
Experimental: For metastatic ovarian cancer cell injections, 5×10^6 viable primary ovarian cancer cells were injected into CB-17 SCID mice intraperitoneally in a volume of 0.1 ml. Tumor growth was monitored by live animal bioluminescence imaging (Xenogen) once per week. For in vivo determination of the metastatic burden, mice were anaesthetized and injected intraperitoneally with 75 mg/kg of D-luciferin (100 uL of 30 mg/mL in PBS). Metastatic growth was monitored over time using bioluminescence imaging performed with mice in a supine position 5 min after D-luciferin injection with a Xenogen IVIS system coupled to Living Image acquisition and analysis software (Xenogen). For BLI plots, photon flux was calculated for each mouse by using the same circular region of interest encompassing the abdomen of the mouse.
To determine whether DWLPK (SEQ ID NO: 4) could inhibit or regress existing ovarian metastases 5×10^6 primary ovarian cancer cells were injected intraperitoneally into SCID mice. After 17 days treatment was initiated with DWLPK (SEQ ID NO: 4) at a dose of 40 mg/kg QD, cisplatin at a dose of 2 mg/kg QOD, a combination of DWLPK (SEQ ID NO: 4) and cisplatin at the same doses, or PBS (control). It was observed that DWLPK (SEQ ID NO: 4) treatment completely regressed the metastases in 11/12 after 30 days and the regressed the metastases in the remaining mice by 99% (FIG. 20).

[4] = system: MDA-MB-231-LM2 breast cancer cells; assay: Orthotopic MDA-MB-231-LM2 breast cancer model, lung metastasis after primary tumor resection; assay type: in vivo, SCID mice
Experimental: For orthotopic breast cancer cell injections, 5×10^6 viable MDA-MB-231 or its metastatic variant MDA-MB-LM2 cells, were injected into CB-17 SCID mice fat pads in a volume of 0.1 ml. Tumor growth and pulmonary metastases (following resection of primary tumor) were monitored by live animal bioluminescence imaging (Xenogen) once per week. For orthotopic prostate cancer cell injections, 2×10^6 viable LN4 or LN4-psap cells were injected into the prostate gland of mice. For in vivo determination of the metastatic burden, mice were anaesthetized and injected intraperitoneally with 75 mg/kg of D-luciferin (100 uL of 30 mg/mL in PBS). Metastatic growth was monitored over time using bioluminescence imaging performed with mice in a supine position 5 min after D-luciferin injection with a Xenogen IVIS system coupled to Living Image acquisition and analysis software (Xenogen). For BLI plots, photon flux was calculated for each mouse by using the same circular region of interest encompassing the thorax of the mouse.
The ability of the DWLPK (SEQ ID NO: 4) peptide to inhibit metastasis was tested in an orthotopic, clinically relevant, model of breast cancer metastatic to the lung. […] Lung metastases were assessed 3 weeks after the primary tumor removal (week 6 after primary tumor injection).

Substance: DWLPK [5-amino acid peptide corresponding to residues 36-40 of saposin A]
- average luciferase activity relative to mice treated with a scrambled peptide ([1]; 30 mg/kg/day i.p. from day 5, after 29 days, IVIS): 2%
- lung metastases by bioluminescence imaging ([1]; LLC-luc cells via tail vein, compared to scrambled peptide): dramatically reduced lung metastases
- recruitment of Gr1+ cells in the lungs ([2]; LN4 CM alone or in combination with peptide): identical regardless of the treatment
- Tsp-1 expression in the Gr1+ cells ([2]; LN4 CM daily for 6 days i.p. in combination with peptide): more than two fold
- mice with completely regressed metastases [3]: 11/12
- regression of the metastases in the remaining mice [3]: 99%
- Tsp-1 in the Gr1+ myeloid compartment of lungs ([4]; compared to scrambled peptide): persistent Tsp-1 upregulation
- reduction of the metastatic burden in the lungs ([4]; daily treatment after resection, 3 weeks after primary tumor removal, versus scramble peptide): 50%
